According to PubChem BioAssay AID2060626 (Molecular Pharmacology Branch, DTP, NCI, 2025):

Tested on: 168753-222-R-J1-PDC complex spheroid viability
Assay: Anticancer human tumor 168753-222-R-J1-PDC patient-derived bladder carcinoma cell line growth inhibition [CLK]
Settings: for IC50: curve of first compound; for viability, T/C: stronger effect = lower value
Source text: A high-throughput screen of multi-cell type tumor spheroids was designed to identify active combinations of […] and targeted small molecules. Complex spheroids include a stromal component modeled by human endothelial cells (HUVEC) and fibroblasts modeled by human mesenchymal stem cells (MSCs). The concentration ranges selected for each drug and investigational agent were based upon clinically achievable concentrations if the clinical Cmax of the agent was known.
Compounds. The drugs and investigational agents: cirtuvivint (SM08502; NSC835563), CC-671 (NSC850746), vemurafenib (NSC761431), tapotoclax (NSC804041), sotorasib (NSC818433), adagrasib (NSC831453), MRTX-1133 (NSC836407), BAY2416964 (NSC825713), copanlisib (NSC816437), inavolisib (NSC800729), abemaciclib (NSC768073), osimertinib (NSC779217), entinostat (NSC756642), eltanexor (KPT-8602, NSC794443), venetoclax (NSC766270), ceralasertib (NSC777638), bortezomib (NSC756655), olaparib (NSC753686), talazoparib (NSC767125), alisertib (NSC759677), peposertib (NSC802822), gemcitabine (NSC613327), 5-fluorouracil (NSC19893), SN-38 (NSC673596), oxaliplatin (NSC266046), paclitaxel (NSC125973), and doxorubicin (NSC123127), were obtained from the National Cancer Institute (NCI) Developmental Therapeutics Program Chemical Repository. The FDA-approved anticancer drug set is available from the Developmental Therapeutics Program at https://dtp.cancer.gov/organization/dscb/obtaining/available plates.htm. […] The stock solutions were prepared in dimethyl sulfoxide (DMSO, Sigma-Aldrich, St. Louis, MO, cat. D2650), except for the platinum complexes which were prepared in saline (Quality Biological, Gaithersburg, MD, cat. 114-055-101), at 800-fold the tested concentration and stored at -70 degrees C prior to their use. All drugs and investigational agents were tested over a range starting from a high concentration at or near the clinical Cmax and decreasing in half-log increments. If the clinical Cmax for an agent had not been determined, the highest concentration tested was 10 microM.
Cell Culture. All cells were maintained in an incubator at 37 degrees C and 5% CO2 with 95% humidity. The PDC lines were cultured according to standard operating procedures established by the NCI PDMR. Briefly, all PDCs were thawed and cultured in Matrigel-coated flasks prepared with a working solution of 1X Ham's F-12 nutrient mix, without supplementation (Invitrogen, Waltham, MA, cat. 11765054), 100 U/mL penicillin-streptomycin (Invitrogen, cat. 15140122), and 2.5% Matrigel (Corning Inc., Corning, NY, cat. 354248) for the first three passages. The 947758-054-R-J2-PDC line was cultured in 6B/Colon 1A media, which includes advanced DMEM/F-12 (Thermo Fisher Scientific, cat. 12634028), 10 mM HEPES (Thermo Fisher Scientific, cat. 15630080), 1X GlutaMAX supplement (Thermo Fisher Scientific, cat. 35050061), 0.1 mg/mL primocin (InvivoGen, cat. ant-pm-2), 10% defined fetal bovine serum, heat inactivated (HyClone Laboratories Inc., cat. SH30070.03HI), 1.25 mM N-Acetyl-L-cysteine (Sigma-Aldrich, cat. A9165), 10 mM nicotinamide (Sigma-Aldrich, cat. N0636), 1X B-27 supplement (Thermo Fisher Scientific, cat. 17504044), 1X N-2 supplement (Thermo Fisher Scientific, cat. 17502048), and 10 microM Y-27632 dihydrochloride (Tocris Bioscience, cat. 1254). The 876862-298-R-J1-PDC was cultured in 6E media, which includes all 6B/Colon 1A media components plus 50% L-WRN conditioned media (ATCC, cat. CRL-3276), 50 ng/mL recombinant human EGF recombinant protein (hEGF; Thermo Fisher Scientific, cat. PHG0311), 10 ng/mL recombinant human fibroblast growth factor 10 (hGFG-10; PeproTech, cat. 100-26), 1 ng/mL recombinant human fibroblast growth factor 2 (hFGF-2; PeproTech, cat. 100-18B), and 1 µM prostaglandin E2 (PGE2; Tocris, cat. 2296). The 227483-062-R1-J1-PDC line was cultured in Panc media, containing all 6E components except hFGF-2, with the addition of 500 nM SB-431542 (Selleckchem, cat. S1067) and 10 nM gastrin (Tocris, cat. 3006). […]

[1] = second compound 0.0316 µM, first compound 0.0316 µM
[2] = second compound 0.0316 µM, first compound 0.1 µM
[3] = second compound 0.0316 µM, first compound 0.316 µM
[4] = second compound 0.0316 µM, first compound 1 µM
[5] = second compound 0.0316 µM, first compound 3.16 µM
[6] = second compound 0.0316 µM, first compound 10 µM
[7] = second compound 0.1 µM, first compound 0.0316 µM
[8] = second compound 0.1 µM, first compound 0.1 µM
[9] = second compound 0.1 µM, first compound 0.316 µM
[10] = second compound 0.1 µM, first compound 1 µM
[11] = second compound 0.1 µM, first compound 3.16 µM
[12] = second compound 0.1 µM, first compound 10 µM
[13] = second compound 0.316 µM, first compound 0.0316 µM
[14] = second compound 0.316 µM, first compound 0.1 µM
[15] = second compound 0.316 µM, first compound 0.316 µM
[16] = second compound 0.316 µM, first compound 1 µM
[17] = second compound 0.316 µM, first compound 3.16 µM
[18] = second compound 0.316 µM, first compound 10 µM
[19] = second compound 1 µM, first compound 0.0316 µM
[20] = second compound 1 µM, first compound 0.1 µM
[21] = second compound 1 µM, first compound 0.316 µM
[22] = second compound 1 µM, first compound 1 µM
[23] = second compound 1 µM, first compound 3.16 µM
[24] = second compound 1 µM, first compound 10 µM
[25] = second compound 3.16 µM, first compound 0.0316 µM
[26] = second compound 3.16 µM, first compound 0.1 µM
[27] = second compound 3.16 µM, first compound 0.316 µM
[28] = second compound 3.16 µM, first compound 1 µM
[29] = second compound 3.16 µM, first compound 3.16 µM
[30] = second compound 3.16 µM, first compound 10 µM
[31] = second compound 10 µM, first compound 0.0316 µM
[32] = second compound 10 µM, first compound 0.1 µM
[33] = second compound 10 µM, first compound 0.316 µM
[34] = second compound 10 µM, first compound 1 µM
[35] = second compound 10 µM, first compound 3.16 µM
[36] = second compound 10 µM, first compound 10 µM
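Also: viability measured after seven days of drug exposure.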
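For viability, T/C in this document: luminescence signal used as surrogate for viable cell amount; 100% = DMSO vehicle control wells.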

## C#Cc1c(F)ccc2cc(O)cc(-c3ncc4c(N5CC6CCC(C5)N6)nc(OCC56CCCN5CC(F)C6)nc4c3F)c12 (stereo unspecified) + CN1CCN(c2cc(C(=O)Nc3cc4cc(-c5cnn(C)c5)ccc4cn3)ccn2)CC1
Second compound 0.0316 µM
  IC50: > 10000 nM
Second compound 0.1 µM
  IC50: 1850 nM
Second compound 0.316 µM
  IC50: < 31.6 nM
Second compound 1 µM
  IC50: < 31.6 nM
Second compound 3.16 µM
  IC50: < 31.6 nM
Second compound 10 µM
  IC50: < 31.6 nM
[1]
  viability, T/C: 105%
[2]
  viability, T/C: 107%
[3]
  viability, T/C: 101%
[4]
  viability, T/C: 103%
[5]
  viability, T/C: 96.4%
[6]
  viability, T/C: 70.3%
[7]
  viability, T/C: 77.7%
[8]
  viability, T/C: 64.7%
[9]
  viability, T/C: 63.9%
[10]
  viability, T/C: 64.2%
[11]
  viability, T/C: 37.4%
[12]
  viability, T/C: 38%
[13]
  viability, T/C: 14.7%
[14]
  viability, T/C: 14.6%
[15]
  viability, T/C: 11.8%
[16]
  viability, T/C: 12%
[17]
  viability, T/C: 12.1%
[18]
  viability, T/C: 7.39%
[19]
  viability, T/C: 0.54%
[20]
  viability, T/C: 0.65%
[21]
  viability, T/C: 1.92%
[22]
  viability, T/C: 0.88%
[23]
  viability, T/C: 0.75%
[24]
  viability, T/C: 0.34%
[25]
  viability, T/C: 2.41%
[26]
  viability, T/C: 0.59%
[27]
  viability, T/C: 1.48%
[28]
  viability, T/C: 0.13%
[29]
  viability, T/C: 0.39%
[30]
  viability, T/C: 0.22%
[31]
  viability, T/C: 0.18%
[32]
  viability, T/C: 0.32%
[33]
  viability, T/C: 0.39%
[34]
  viability, T/C: 0.2%
[35]
  viability, T/C: 0.57%
[36]
  viability, T/C: 3.73%

## C=C(F)C(=O)N1CCN(c2nc(OCC3CCCN3C)nc3c2CCN(c2cccc4cccc(Cl)c24)C3)CC1CC#N (stereo unspecified) + CN1CCN(c2cc(C(=O)Nc3cc4cc(-c5cnn(C)c5)ccc4cn3)ccn2)CC1
Second compound 0.0316 µM
  IC50: 3260 nM
Second compound 0.1 µM
  IC50: 1230 nM
Second compound 0.316 µM
  IC50: < 31.6 nM
Second compound 1 µM
  IC50: < 31.6 nM
Second compound 3.16 µM
  IC50: < 31.6 nM
Second compound 10 µM
  IC50: < 31.6 nM
[1]
  viability, T/C: 89.1%
[2]
  viability, T/C: 111%
[3]
  viability, T/C: 85.8%
[4]
  viability, T/C: 101%
[5]
  viability, T/C: 51.4%
[6]
  viability, T/C: 0.91%
[7]
  viability, T/C: 58.7%
[8]
  viability, T/C: 46.7%
[9]
  viability, T/C: 63.5%
[10]
  viability, T/C: 56.3%
[11]
  viability, T/C: 21.8%
[12]
  viability, T/C: 0.32%
[13]
  viability, T/C: 15.6%
[14]
  viability, T/C: 13%
[15]
  viability, T/C: 11.8%
[16]
  viability, T/C: 8.4%
[17]
  viability, T/C: 4.48%
[18]
  viability, T/C: 1.3%
[19]
  viability, T/C: 0.47%
[20]
  viability, T/C: 0.78%
[21]
  viability, T/C: 0.38%
[22]
  viability, T/C: 0.16%
[23]
  viability, T/C: 0.12%
[24]
  viability, T/C: 1.07%
[25]
  viability, T/C: 0.26%
[26]
  viability, T/C: 0.24%
[27]
  viability, T/C: 0.44%
[28]
  viability, T/C: 0.14%
[29]
  viability, T/C: 0.87%
[30]
  viability, T/C: 0.23%
[31]
  viability, T/C: 0.27%
[32]
  viability, T/C: 0.19%
[33]
  viability, T/C: 0.28%
[34]
  viability, T/C: 0.24%
[35]
  viability, T/C: 0.36%
[36]
  viability, T/C: 2.34%

## CC(CO)NC(=O)c1cc(-c2ccc(Cl)cc2)nn(-c2cnn(C)c2)c1=O (stereo unspecified) + CN1CCN(c2cc(C(=O)Nc3cc4cc(-c5cnn(C)c5)ccc4cn3)ccn2)CC1
Second compound 0.0316 µM
  IC50: > 10000 nM
Second compound 0.1 µM
  IC50: 5220 nM
Second compound 0.316 µM
  IC50: < 31.6 nM
Second compound 1 µM
  IC50: < 31.6 nM
Second compound 3.16 µM
  IC50: < 31.6 nM
Second compound 10 µM
  IC50: < 31.6 nM
[1]
  viability, T/C: 98.7%
[2]
  viability, T/C: 130%
[3]
  viability, T/C: 64%
[4]
  viability, T/C: 112%
[5]
  viability, T/C: 117%
[6]
  viability, T/C: 88.2%
[7]
  viability, T/C: 87.2%
[8]
  viability, T/C: 81.8%
[9]
  viability, T/C: 64.1%
[10]
  viability, T/C: 73.3%
[11]
  viability, T/C: 58.6%
[12]
  viability, T/C: 39.6%
[13]
  viability, T/C: 19.4%
[14]
  viability, T/C: 13.6%
[15]
  viability, T/C: 16.8%
[16]
  viability, T/C: 13.8%
[17]
  viability, T/C: 19.1%
[18]
  viability, T/C: 13.8%
[19]
  viability, T/C: 0.44%
[20]
  viability, T/C: 0.4%
[21]
  viability, T/C: 0.31%
[22]
  viability, T/C: 0.55%
[23]
  viability, T/C: 0.46%
[24]
  viability, T/C: 3.13%
[25]
  viability, T/C: 0.2%
[26]
  viability, T/C: 0.16%
[27]
  viability, T/C: 2.4%
[28]
  viability, T/C: 0.15%
[29]
  viability, T/C: 2.55%
[30]
  viability, T/C: 0.21%
[31]
  viability, T/C: 0.26%
[32]
  viability, T/C: 0.45%
[33]
  viability, T/C: 0.61%
[34]
  viability, T/C: 0.27%
[35]
  viability, T/C: 1.02%
[36]
  viability, T/C: 2.24%
